# From PubChem BioAssay (NCI)
#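 Results reflect a 48-hour exposure of cells in 96-well plates to compound at five concentrations. Here, GI50 denotes the concentration required for 50% inhibition of growth. TGI: concentration producing complete growth inhibition.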
# Legend:
# Assay in all cases: growth of human tumour cells (NCI), 48 h
# [1] = tested on: CAKI-1 renal
# [2] = tested on: HCT-15 colon
# [3] = tested on: OVCAR-4 ovarian
# [4] = tested on: UACC-257 melanoma
# [5] = tested on: HL-60(TB) leukemia
# [6] = tested on: A549 NSCLC
# [7] = tested on: HCC-2998 colon
# [8] = tested on: UO-31 renal
# [9] = tested on: OVCAR-8 ovarian
# [10] = tested on: NCI/ADR-RES ovarian
# [11] = tested on: SNB-75 CNS
# [12] = tested on: RXF 393 renal
# [13] = tested on: T-47D breast
# [14] = tested on: A498 renal
# [15] = tested on: 786-0 renal
# [16] = tested on: HS 578T breast
# [17] = tested on: SNB-19 CNS
# [18] = tested on: SF-268 CNS
# [19] = tested on: SW-620 colon
# [20] = tested on: IGROV1 ovarian
# [21] = tested on: SF-539 CNS
# [22] = tested on: TK-10 renal
# [23] = tested on: UACC-62 melanoma
# [24] = tested on: HCT-116 colon
# [25] = tested on: HOP-62 NSCLC
# [26] = tested on: ACHN renal
# [27] = tested on: OVCAR-5 ovarian
# [28] = tested on: LOX IMVI melanoma
# [29] = tested on: MALME-3M melanoma
# [30] = tested on: MDA-MB-435
# [31] = tested on: SK-MEL-2 melanoma
# [32] = tested on: EKVX NSCLC
# [33] = tested on: MDA-MB-231 breast
# [34] = tested on: BT-549 breast
# [35] = tested on: NCI-H23 lung
# [36] = tested on: OVCAR-3 ovarian
# [37] = tested on: KM12 colon
# [38] = tested on: U251 CNS
# [39] = tested on: RPMI-8226 leukemia
# [40] = tested on: K-562 leukemia
# [41] = tested on: HT29 colon
# [42] = tested on: HOP-92 NSCLC
# [43] = tested on: SF-295 CNS
# [44] = tested on: SK-OV-3 ovarian
# [45] = tested on: SK-MEL-28 melanoma
# [46] = tested on: SN12C renal
# [47] = tested on: MOLT-4 leukemia
# [48] = tested on: SK-MEL-5 melanoma
# [49] = tested on: DU-145 prostate
# [50] = tested on: COLO 205 colon
# [51] = tested on: CCRF-CEM leukemia
# [52] = tested on: M14 melanoma
# [53] = tested on: NCI-H226 lung
# [54] = tested on: PC-3 prostate
# [55] = tested on: NCI-H522 lung
# [56] = tested on: SR leukemia
# [57] = tested on: NCI-H460 lung
smiles,measurement,setting,value
COc1ccc(/C=N/NC2=NC3C(S2)N(C)C(=O)N3C)cc1 (stereo not drawn),GI50,[1],3.76 µM
same,TGI,[1],> 100 µM
same,GI50,[2],3.48 µM
same,TGI,[2],> 100 µM
same,GI50,[3],7.95 µM
same,TGI,[3],> 100 µM
same,GI50,[4],5.01 µM
same,TGI,[4],> 100 µM
same,GI50,[5],2.51 µM
same,TGI,[5],5.55 µM
same,GI50,[6],5.83 µM
same,TGI,[6],> 100 µM
same,GI50,[7],6.91 µM
same,TGI,[7],36 µM
same,GI50,[8],3.16 µM
same,TGI,[8],> 100 µM
same,GI50,[9],7.65 µM
same,TGI,[9],> 100 µM
same,GI50,[10],3.8 µM
same,TGI,[10],27.4 µM
same,GI50,[11],1.75 µM
same,TGI,[11],6.26 µM
same,GI50,[12],1.99 µM
same,TGI,[12],5.05 µM
same,GI50,[13],4.5 µM
same,TGI,[13],> 100 µM
same,GI50,[14],5.73 µM
same,TGI,[14],87 µM
same,GI50,[15],4.89 µM
same,TGI,[15],> 100 µM
same,GI50,[16],2.51 µM
same,TGI,[16],7.53 µM
same,GI50,[17],4.12 µM
same,TGI,[17],> 100 µM
same,GI50,[18],5.37 µM
same,TGI,[18],> 100 µM
same,GI50,[19],3.32 µM
same,TGI,[19],> 100 µM
same,GI50,[20],4.72 µM
same,TGI,[20],> 100 µM
same,GI50,[21],3.03 µM
same,TGI,[21],12.3 µM
same,TGI,[22],40.9 µM
same,GI50,[23],2.97 µM
same,TGI,[23],37.1 µM
same,GI50,[24],4.67 µM
same,TGI,[24],> 100 µM
same,GI50,[25],4.12 µM
same,TGI,[25],> 100 µM
same,GI50,[26],5.27 µM
same,TGI,[26],> 100 µM
same,GI50,[27],7.96 µM
same,TGI,[27],> 100 µM
same,GI50,[28],3.79 µM
same,TGI,[28],> 100 µM
same,GI50,[29],3.7 µM
same,TGI,[29],> 100 µM
same,GI50,[30],1.6 µM
same,TGI,[30],3.92 µM
same,GI50,[31],1.04 µM
same,TGI,[31],3.52 µM
same,GI50,[32],8.03 µM
same,TGI,[32],> 100 µM
same,GI50,[33],6.09 µM
same,TGI,[33],45.2 µM
same,GI50,[34],2.71 µM
same,TGI,[34],14.2 µM
same,GI50,[35],5.05 µM
same,TGI,[35],> 100 µM
same,GI50,[36],2.82 µM
same,TGI,[36],7.95 µM
same,GI50,[37],4.73 µM
same,TGI,[37],> 100 µM
same,GI50,[38],3.78 µM
same,TGI,[38],> 100 µM
same,GI50,[39],5 µM
same,TGI,[39],> 100 µM
same,GI50,[40],3.12 µM
same,TGI,[40],> 100 µM
same,GI50,[41],2.15 µM
same,TGI,[41],5.1 µM
same,GI50,[42],9.44 µM
same,TGI,[42],> 100 µM
same,GI50,[43],2.97 µM
same,TGI,[43],12.7 µM
same,GI50,[44],4.27 µM
same,TGI,[44],> 100 µM
same,GI50,[45],7.7 µM
same,TGI,[45],> 100 µM
same,GI50,[46],4.17 µM
same,TGI,[46],> 100 µM
same,GI50,[47],3.58 µM
same,TGI,[47],> 100 µM
same,GI50,[48],2.95 µM
same,TGI,[48],10.6 µM
same,GI50,[49],9.89 µM
same,TGI,[49],> 100 µM
same,GI50,[50],4.25 µM
same,TGI,[50],25 µM
same,GI50,[51],3.61 µM
same,TGI,[51],> 100 µM
same,GI50,[52],4 µM
same,TGI,[52],64.1 µM
same,GI50,[53],4.58 µM
same,TGI,[53],> 100 µM
same,GI50,[54],4.76 µM
same,TGI,[54],> 100 µM
Cc1ccc2c(n1)C(=O)C(Cl)=C(Nc1ccc(C(C)C)cc1)C2=O,GI50,[1],1.53 µM
same,TGI,[1],3.15 µM
same,GI50,[2],1.39 µM
same,TGI,[2],3.14 µM
same,GI50,[3],1.57 µM
same,TGI,[3],3.15 µM
same,GI50,[4],1.69 µM
same,TGI,[4],3.18 µM
same,GI50,[5],1.44 µM
same,TGI,[5],3.5 µM
same,GI50,[6],3.26 µM
same,TGI,[6],12.4 µM
same,GI50,[7],1.99 µM
same,TGI,[7],3.65 µM
same,GI50,[8],1.23 µM
same,TGI,[8],2.6 µM
same,GI50,[9],2.59 µM
same,TGI,[9],9.48 µM
same,GI50,[10],2.53 µM
same,TGI,[10],9.2 µM
same,GI50,[11],1.67 µM
same,TGI,[11],5.17 µM
same,GI50,[12],1.49 µM
same,TGI,[12],2.85 µM
same,GI50,[13],1.18 µM
same,TGI,[13],3.46 µM
same,GI50,[14],12.5 µM
same,TGI,[14],25.2 µM
same,GI50,[15],2.08 µM
same,TGI,[15],4.5 µM
same,GI50,[16],2.07 µM
same,TGI,[16],5.96 µM
same,GI50,[17],1.9 µM
same,TGI,[17],4.57 µM
same,GI50,[18],1.76 µM
same,TGI,[18],3.86 µM
same,GI50,[20],1.29 µM
same,TGI,[20],2.96 µM
same,GI50,[21],1.62 µM
same,TGI,[21],3.07 µM
same,GI50,[22],2.57 µM
same,TGI,[22],4.13 µM
same,GI50,[23],1.83 µM
same,TGI,[23],3.77 µM
same,GI50,[24],1.52 µM
same,TGI,[24],3.41 µM
same,GI50,[25],5.34 µM
same,TGI,[25],20.1 µM
same,GI50,[55],2.02 µM
same,TGI,[55],4.58 µM
same,GI50,[26],1.66 µM
same,TGI,[26],3.09 µM
same,GI50,[27],1.74 µM
same,TGI,[27],3.53 µM
same,GI50,[29],1.65 µM
same,TGI,[29],3.38 µM
same,GI50,[30],1.93 µM
same,TGI,[30],3.7 µM
same,GI50,[31],1.81 µM
same,TGI,[31],3.54 µM
same,GI50,[32],1.5 µM
same,TGI,[32],4.18 µM
same,GI50,[34],1.51 µM
same,TGI,[34],2.9 µM
same,GI50,[35],1.82 µM
same,TGI,[35],5.05 µM
same,GI50,[36],1.4 µM
same,TGI,[36],2.77 µM
same,GI50,[37],3.25 µM
same,TGI,[37],14 µM
same,GI50,[38],1.76 µM
same,TGI,[38],3.51 µM
same,GI50,[39],1.52 µM
same,TGI,[39],4.53 µM
same,GI50,[40],0.351 µM
same,TGI,[40],1.68 µM
same,GI50,[41],2.57 µM
same,TGI,[41],6.44 µM
same,GI50,[43],3.63 µM
same,TGI,[43],13 µM
same,GI50,[56],0.643 µM
same,TGI,[56],3.48 µM
same,GI50,[44],10.4 µM
same,TGI,[44],22.3 µM
same,GI50,[45],1.83 µM
same,TGI,[45],3.33 µM
same,GI50,[46],2.03 µM
same,TGI,[46],5.38 µM
same,GI50,[47],2.16 µM
same,TGI,[47],6.36 µM
same,GI50,[48],1.59 µM
same,TGI,[48],3 µM
same,GI50,[57],3.03 µM
same,TGI,[57],13.9 µM
same,GI50,[49],1.73 µM
same,TGI,[49],3.24 µM
same,GI50,[50],1.89 µM
same,TGI,[50],3.97 µM
same,GI50,[51],1.9 µM
same,TGI,[51],5.78 µM
same,GI50,[52],1.7 µM
same,TGI,[52],3.25 µM
same,GI50,[53],1.68 µM
same,TGI,[53],4.35 µM
same,GI50,[54],1.28 µM
same,TGI,[54],3.16 µM
